Source: paper PMC12104086, “Identification of a multiple DAMP scavenger mimicking the DAMP-binding site of TLR4 to ameliorate lethal sepsis” (Frontiers in Immunology, 2025)

Assays:
[1] = tested on: C57BL/6 mice, cecal ligation and puncture (CLP); assay: CLP lethal sepsis model, 20 h: plasma DAMPs, serum cytokines and organ injury markers; type: in vivo, mouse; conditions: 80 nmol/kg i.p. once at abdominal closure, 20 h after CLP; n = 7–9; scrambled: vs sham; OP18: vs scrambled peptide; p < 0.05
Protocol: Polymicrobial sepsis was induced in mice by cecal ligation and puncture (CLP) ([7], [23]). Mice were anesthetized with isoflurane, and a midline abdominal incision was performed. The cecum was ligated with a 4–0 silk suture 1 cm proximal from its distal extremity and puncture using a 22-G needle was made twice (through and through) for a 20-h study and once for a survival study. A control (scrambled peptide) or OP18, both with 80 nmol/kg body weight (BW), was injected intraperitoneally (i.p.) before the closure. Sham animals were subjected to a laparotomy without CLP. Following the surgery, 1 mL of saline was injected subcutaneously to avoid surgery-induced dehydration, and 0.05 mg/kg buprenorphine was injected subcutaneously as an analgesic; 20 h after the surgery, the blood and lungs were collected. In the 20-h model, antibiotics were not administered, whereas in the survival study, 0.5 mg/kg BW of Imipenem was injected subcutaneously.
Blood was collected, centrifuged at 1,000 × g for 10 min, and plasma or serum was separated. Plasma levels of eCIRP, HMGB1, and histone H3 were analyzed by ELISA kits according to the manufacturer’s instruction (eCIRP from American Research Products, Inc., Waltham, MA, USA, HMGB1 from Invitrogen, Thermo Fisher Scientific, and histone H3 from LS Bio, Shirley, MA, USA). Serum levels of IL-6 and TNF-α were analyzed by ELISA kits (IL-6 and TNF-α both from BD Biosciences, Franklin Lakes, NJ, USA) according to the manufacturer’s instruction. Serum levels of aspartate aminotransferase (AST), lactate dehydrogenase (LDH), blood urea nitrogen (BUN), and creatinine (Cre) were measured by specific colorimetric enzymatic assays (Pointe Scientific, Canton, MI). Absorbance was measured on a Synergy Neo2 (Agilent Technologies) according to the manufacturer’s instructions.
Figure 4 OP18 alleviates systemic inflammation and tissue injury in sepsis. Intraperitoneal injection of 80 nmol/kg scrambled peptide or 80 nmol/kg OP18 was performed on CLP mice before skin closure. Blood and lungs were collected 20 h after CLP. (A–C) Plasma levels of (A) eCIRP, (B) HMGB1, and (C) histone H3. (D–I) Serum levels of (D) IL-6, (E) TNF-α, (F) AST, (G) LDH, (H) BUN, and (I) Cre. Data are expressed as mean ± SEM (n = 7–9 samples/group) and were compared using one-way ANOVA followed by Tukey’s multiple comparison test. ^* p < 0.05 versus sham; ^# p < 0.05 versus scrambled peptide. Experiments were performed three times, and all data were used for analysis.

RAW264.7 cells = assay: MTS cytotoxicity assay; type: cell-based, mouse; conditions: 20 h, n=3-4, versus PBS
Protocol: (§1) Supplemental Figure 6: Toxicity Assay of OP18
(§2) Note: (A) RAW264.7 cells were treated with OP18 for 20 h and MTS assay was performed using a CellTiter 96® AQueous Non-Radioactive Cell Proliferation Assay kit (Promega, Madison, Wisconsin) according to the manufacturer’s instructions. (B) Mouse peritoneal macrophages were treated with OP18 for 20 h and CyQUANT™ LDH Cytotoxicity Assay (Thermo Fisher Scientific, Waltham, MA) was performed according to the manufacturer’s instruction s. Data are expressed as mean ± SEM (n=3-4 samples/group) and compared by one -way ANOVA and a Tukey’s multiple comparison test. ns: not significant, *p < 0.05 versus PBS (C, D) Sham mice were treated with OP18 for 20h and blood were collected. (C) IL-6 and (D) TNFα were […]
(§3) Data are expressed as mean ± SEM and compared by unpaired two -tailed Student’s t-test. not significant (ns) vs sham.
(§4) (1 picture or pasted object on this page, not shown here)

[2] = tested on: mouse peritoneal macrophages; assay: LDH cytotoxicity assay; type: cell-based; conditions: 20 h, n=3-4, versus PBS
Protocol: as §1, §2, §3, §4

C57BL/6 mice (sham) = assay: Cytokine production in sham mice treated with OP18; type: in vivo, mouse; conditions: OP18-treated sham versus sham, 20 h, blood, ELISA
Protocol: as §1, §2, §3, §4

Compound | plasma HMGB1 level [1] | plasma eCIRP level [1] | plasma histone H3 level [1] | serum AST [1] | serum BUN [1] | serum Cre [1] | serum IL-6 [1] | serum LDH [1] | serum TNF-α [1] | cytotoxicity on macrophages (MTS) (RAW264.7 cells) | cytotoxicity on macrophages (LDH) [2] | IL-6 in sham mice (C57BL/6 mice (sham)) | TNFα in sham mice (C57BL/6 mice (sham))
NRKINMGSFTQCSNNLGD [scrambled peptide, scrambled control peptide for OP18 ([…])] | significantly elevated | significantly elevated | significantly elevated | significantly elevated | significantly elevated | significantly elevated | significantly elevated | significantly elevated | significantly elevated |  |  |  | 
CC[C@H](C)[C@H](NC(=O)[C@H](CC(N)=O)NC(=O)[C@H](CO)NC(=O)[C@H](CO)NC(=O)[C@H](CC(N)=O)NC(=O)[C@H](Cc1ccccc1)NC(=O)[C@H](CC(N)=O)NC(=O)CN)C(=O)N[C@@H](CCSC)C(=O)N[C@@H](CCCCN)C(=O)N[C@H](C(=O)N[C@@H](CS)C(=O)N[C@@H](CC(C)C)C(=O)N[C@@H](CCC(N)=O)C(=O)N[C@@H](CC(N)=O)C(=O)N[C@@H](CCCNC(=N)N)C(=O)NCC(=O)N[C@@H](CC(=O)O)C(=O)O)[C@@H](C)O [OP18] |  |  |  |  |  |  |  |  |  | did not observe any cytotoxicity | did not observe any cytotoxicity | No significant difference | No significant difference
